Laboratory results taken from patent publication US6723753B2, “Substituted n-benzyl-n-phenyl aminoalcohol compounds useful for inhibiting cholesteryl ester transfer protein activity” (Pharmacia Corporation, priority 2002, dated 2004).
Like-named read-outs stand apart in the source and are kept apart here.

Target: T1, CETP (Homo sapiens, UniProt P11597)
T1 sequence (P11597 18-493): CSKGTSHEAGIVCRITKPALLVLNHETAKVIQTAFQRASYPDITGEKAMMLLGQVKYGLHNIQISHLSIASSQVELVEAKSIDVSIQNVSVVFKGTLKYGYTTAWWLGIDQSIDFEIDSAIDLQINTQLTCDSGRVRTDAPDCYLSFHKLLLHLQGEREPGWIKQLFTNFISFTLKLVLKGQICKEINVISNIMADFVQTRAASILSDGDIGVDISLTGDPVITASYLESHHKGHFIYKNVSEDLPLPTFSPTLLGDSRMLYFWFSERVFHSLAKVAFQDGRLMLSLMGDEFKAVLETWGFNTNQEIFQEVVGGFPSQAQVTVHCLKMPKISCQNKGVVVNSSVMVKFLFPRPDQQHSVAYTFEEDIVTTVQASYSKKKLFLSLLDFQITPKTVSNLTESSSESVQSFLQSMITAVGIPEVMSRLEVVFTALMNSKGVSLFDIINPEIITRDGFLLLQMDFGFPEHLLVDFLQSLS
Assay: Assay of CETP Inhibition using Purified Components (Reconstituted Buffer Assay)
Assay type: biochemical
Set-up: made in house; host or cells: CHO cells (serum-free conditioned medium)
Conditions: transfer of [3H]CE from HDL to LDL
Procedure: Assay of CETP Inhibition using Purified Components (Reconstituted Buffer Assay)
The ability of compounds to inhibit CETP activity was assessed using an in vitro assay that measured the rate of transfer of radiolabeled cholesteryl ester ([^3H]CE) from HDL donor particles to LDL acceptor particles. Details of the assay are provided by Glenn, K. C. et al. (Glenn and Melton, “Quantification of Cholesteryl Ester Transfer Protein (CETP): A) CETP Activity and B) Immunochemical Assay of CETP Protein,” Meth. Enzymol., 263, 339-351 (1996)). Human recombinant CETP can be obtained from the serum-free conditioned medium of CHO cells transfected with a cDNA for CETP and purified as described by Wang, S. et al. (J. Biol. Chem. 267, 17487-17490 (1992)). To measure CETP activity, [^3H]CE-labeled-HDL, LDL, CETP and assay buffer (50 mM tris(hydroxymethyl)aminomethane, pH 7.4; 150 mM sodium chloride; 2 mM ethylenediamine-tetraacetic acid (EDTA); 1% bovine serum albumin) were incubated in a final volume of 200 μL, for 2 hours at 37° C. in 96 well plates. […] The inhibitors were then diluted 1:1 with CETP in assay buffer, and then 25 μL of that solution was mixed with 175 μL of lipoprotein pool for assay. Following incubation, LDL was differentially precipitated by the addition of 50 μL of 1% (w/v) dextran sulfate/0.5 M magnesium chloride, mixed by vortex, and incubated at room temperature for 10 minutes. A potion of the solution (200 μL) was transferred to a filter plate (Millipore). After filtration, the radioactivity present in the precipitated LDL was measured by liquid scintillation counting.
This value was defined as the IC50.
Examples of IC50 values determined by these methods are specified in Table 9.

[1] = Inhibition of CETP activity in reconstituted buffer assay, read-out: IC50

Row | IC50 [1] [µM] | SMILES | IC50 (IC50, Inhibition of CETP activity in reconstituted buffer assay) [µM]
1 | 12 | OC(CN(Cc1cccc(Oc2ccc(Cl)cc2)c1)c1cccc(Oc2ccccc2)c1)C(F)(F)F (stereo not drawn) [Example 92] | –
2 | 40 | OC(CN(Cc1cccc(Oc2ccc(Cl)c(Cl)c2)c1)c1cccc(Oc2ccccc2)c1)C(F)(F)F (stereo not drawn) [Example 94] | –
3 | 60 | OC(CN(Cc1cccc(Oc2ccc(Cl)c(Cl)c2)c1)c1cccc(OC(F)(F)F)c1)C(F)(F)F (stereo not drawn) [Example 95] | –
4 | > 100 | COc1ccc(CN(CC(O)C(F)(F)F)c2cccc(OC(F)(F)F)c2)cc1OCc1ccccc1 (stereo not drawn) [Example 99] | –
5 | 35 | OC(CN(Cc1ccc2c(c1)OCCO2)c1cccc(OC(F)(F)F)c1)C(F)(F)F (stereo not drawn) [Example 105] | –
6 | 30 | COc1cc(CN(CC(O)C(F)(F)F)c2cccc(OC(F)(F)F)c2)ccc1OCc1ccccc1 (stereo not drawn) [Example 106] | –
7 | 60 | OC(CN(Cc1cccc(Oc2cccc(C(F)(F)F)c2)c1)c1cccc(C(F)(F)F)c1)C(F)(F)F (stereo not drawn) [Example 108] | –
8 | 25 | OC(CN(Cc1cccc(Oc2ccccc2)c1)c1cccc(C(F)(F)F)c1)C(F)(F)F (stereo not drawn) [Example 109] | –
9 | 60 | OC(CN(Cc1cccc(Oc2cccc(C(F)(F)F)c2)c1)c1ccc(C(F)(F)F)cc1)C(F)(F)F (stereo not drawn) [Example 110] | –
10 | 65 | OC(CN(Cc1cccc(Oc2ccccc2)c1)c1ccc(C(F)(F)F)cc1)C(F)(F)F (stereo not drawn) [Example 111] | –
11 | 20 | O=[N+]([O-])c1cccc(CN(CC(O)C(F)(F)F)c2cccc(Oc3ccccc3)c2)c1 (stereo not drawn) [Example 113] | –
12 | 40 | OC(CN(Cc1cccc(Oc2cc(Cl)cc(Cl)c2)c1)c1cccc(Oc2ccccc2)c1)C(F)(F)F (stereo not drawn) [Example 114] | –
13 | 90 | COc1cccc(CN(CC(O)C(F)(F)F)c2cccc(OC)c2)c1 (stereo not drawn) [Example 123] | –
14 | 9 | OC(CN(Cc1cccc(OC(F)(F)F)c1)c1ccc2c(c1)OCO2)C(F)(F)F (stereo not drawn) [Example 129] | –
15 | 80 | OC(CN(Cc1cccc(Oc2ccccc2)c1)c1ccc2c(c1)OCO2)C(F)(F)F (stereo not drawn) [Example 130] | –
16 | 12 | OC(CN(Cc1cccc(OC(F)(F)F)c1)c1ccc(Cc2ccccc2)cc1)C(F)(F)F (stereo not drawn) [Example 136] | –
17 | 20 | OC(CN(Cc1ccc2c(c1)OCCO2)c1cccc(Oc2ccccc2)c1)C(F)(F)F (stereo not drawn) [Example 137] | –
18 | 8 | OC(CN(Cc1cccc(OC(F)(F)F)c1)c1ccc2c(c1)OCCCO2)C(F)(F)F (stereo not drawn) [Example 139] | –

Row | IC50 [1] [µM] | SMILES | IC50 (IC50, Inhibition of CETP activity in reconstituted buffer assay) [µM]
19 | 15 | OC(CN(Cc1cc(C(F)(F)F)cc(C(F)(F)F)c1)c1cccc(Oc2ccccc2)c1)C(F)(F)F (stereo not drawn) [Example 145] | –
20 | 10 | N#Cc1ccc(CN(CC(O)C(F)(F)F)c2cccc(Oc3ccccc3)c2)cc1 (stereo not drawn) [Example 146] | –
21 | 8 | N#Cc1cccc(CN(CC(O)C(F)(F)F)c2cccc(Oc3ccccc3)c2)c1 (stereo not drawn) [Example 147] | –
22 | 15 | O=[N+]([O-])c1ccc(CN(CC(O)C(F)(F)F)c2cccc(Oc3ccccc3)c2)cc1 (stereo not drawn) [Example 148] | –
23 | > 100 | OC(CN(Cc1cccc(Oc2ccccc2)c1)c1ccc(Oc2ccccc2)cc1)C(F)(F)F (stereo not drawn) [Example 151] | –
24 | 8 | OC(CN(Cc1ccc(Oc2ccccc2)cc1)c1cccc(OC(F)(F)F)c1)C(F)(F)F (stereo not drawn) [Example 152] | –
25 | 4 | OC(CN(Cc1ccc(Oc2ccccc2)cc1)c1cccc(Oc2ccccc2)c1)C(F)(F)F (stereo not drawn) [Example 153] | –
26 | > 100 | OC(CN(Cc1ccc(Oc2ccccc2)cc1)c1ccc(Oc2ccccc2)cc1)C(F)(F)F (stereo not drawn) [Example 154] | –
27 | > 100 | OC(CN(Cc1ccc(OC(F)(F)F)cc1)c1ccc(Oc2ccccc2)cc1)C(F)(F)F (stereo not drawn) [Example 155] | –
28 | 40 | CS(=O)(=O)c1ccc(CN(CC(O)C(F)(F)F)c2cccc(Oc3ccccc3)c2)cc1 (stereo not drawn) [Example 156] | –
29 | > 100 | COC(=O)c1ccc(CN(CC(O)C(F)(F)F)c2cccc(Oc3ccccc3)c2)cc1 (stereo not drawn) [Example 157] | –
30 | > 100 | COc1ccc(Oc2cccc(CN(CC(O)C(F)(F)F)c3cccc(Oc4ccccc4)c3)c2)cc1 (stereo not drawn) [Example 161] | –
31 | 90 | OC(CN(Cc1cccc(Oc2ccccc2)c1)c1ccc(Oc2ccc(Cl)cc2)cc1)C(F)(F)F (stereo not drawn) [Example 165] | –
32 | 10 | OC(CN(Cc1ccc2c(c1)Cc1ccccc1-2)c1cccc(F)c1)C(F)(F)F (stereo not drawn) [Example 199] | –
33 | > 100 | CC(c1ccc(C#N)cc1)N(CC(O)C(F)(F)F)c1cccc(Oc2ccccc2)c1 (stereo not drawn) [Example 202] | –
34 | 60 | CC(c1cccc(F)c1)N(CC(O)C(F)(F)F)c1cccc(Oc2ccccc2)c1 (stereo not drawn) [Example 203] | –
35 | > 100 | CC(c1cccc([N+](=O)[O-])c1)N(CC(O)C(F)(F)F)c1cccc(Oc2ccccc2)c1 (stereo not drawn) [Example 205] | –
36 | > 100 | CC(c1cccc(OC(F)(F)F)c1)N(CC(O)C(F)(F)F)c1cccc(Oc2ccccc2)c1 (stereo not drawn) [Example 206] | –

Continued, molecule first:

Row | SMILES | IC50 [1] [µM] | IC50 (IC50, Inhibition of CETP activity in reconstituted buffer assay) [µM]
37 | CCCCCCCCc1ccc(N(Cc2cccc(OC(F)(F)F)c2)CC(O)C(F)(F)F)cc1 (stereo not drawn) [Example 88] | 75 | –
38 | OC(CN(Cc1ccc(OCc2ccccc2)c(OCc2ccccc2)c1)c1cccc(OC(F)(F)F)c1)C(F)(F)F (stereo not drawn) [Example 100] | 90 | –
39 | CCOc1cccc(CN(CC(O)C(F)(F)F)c2cccc(OC(F)(F)F)c2)c1 (stereo not drawn) [Example 101] | 6 | –
40 | CC(=O)Oc1cccc(CN(CC(O)C(F)(F)F)c2cccc(OC(F)(F)F)c2)c1 (stereo not drawn) [Example 102] | 60 | –
41 | OCCOc1cccc(CN(CC(O)C(F)(F)F)c2cccc(OC(F)(F)F)c2)c1 (stereo not drawn) [Example 103] | 35 | –
42 | OC(CN(Cc1cc(OCc2ccccc2)cc(OCc2ccccc2)c1)c1cccc(OC(F)(F)F)c1)C(F)(F)F (stereo not drawn) [Example 107] | 75 | –
43 | COc1ccc(CN(CC(O)C(F)(F)F)c2cccc(OC(F)(F)F)c2)cc1OC (stereo not drawn) [Example 116] | 40 | –
44 | CCOc1cc(CN(CC(O)C(F)(F)F)c2cccc(OC(F)(F)F)c2)ccc1OC (stereo not drawn) [Example 117] | 25 | –
45 | CC(=O)Oc1ccc(CN(CC(O)C(F)(F)F)c2cccc(OC(F)(F)F)c2)cc1OC(C)=O (stereo not drawn) [Example 118] | 45 | –
46 | COc1cc(CN(CC(O)C(F)(F)F)c2cccc(OC(F)(F)F)c2)ccc1OC(C)=O (stereo not drawn) [Example 119] | 70 | –
47 | COc1cccc(CN(CC(O)C(F)(F)F)c2cccc(OC(F)(F)F)c2)c1 (stereo not drawn) [Example 121] | > 100 | –
48 | COc1ccc(CN(CC(O)C(F)(F)F)c2cccc(OC(F)(F)F)c2)cc1 (stereo not drawn) [Example 122] | 8 | –
49 | COc1cccc(N(Cc2cccc(OC(F)(F)F)c2)CC(O)C(F)(F)F)c1 (stereo not drawn) [Example 124] | 8 | –
50 | CCCOc1ccc(CN(CC(O)C(F)(F)F)c2cccc(OC(F)(F)F)c2)cc1 (stereo not drawn) [Example 125] | 25 | –
51 | COc1ccc(N(Cc2cccc(OC(F)(F)F)c2)CC(O)C(F)(F)F)cc1OC (stereo not drawn) [Example 132] | 25 | –
52 | OC(CN(Cc1cccc(OC(F)(F)F)c1)c1ccc(Oc2ccccc2)cc1)C(F)(F)F (stereo not drawn) [Example 133] | – | 25
53 | OC(CN(Cc1cccc(OC(F)(F)F)c1)c1ccc(OC(F)(F)F)cc1)C(F)(F)F (stereo not drawn) [Example 134] | 6 | –
54 | CCCCOc1ccc(N(Cc2cccc(OC(F)(F)F)c2)CC(O)C(F)(F)F)cc1 (stereo not drawn) [Example 135] | 20 | –
55 | CCOc1ccc(CN(CC(O)C(F)(F)F)c2cccc(OC(F)(F)F)c2)cc1OCC (stereo not drawn) [Example 138] | 30 | –
56 | N#Cc1cccc(N(Cc2ccc(C(F)(F)F)cc2)CC(O)C(F)(F)F)c1 (stereo not drawn) [Example 142] | 40 | –
57 | OC(CN(Cc1ccc(-c2ccccc2)cc1)c1cccc(C(F)(F)F)c1)C(F)(F)F (stereo not drawn) [Example 143] | 80 | –
58 | CCOc1ccc(CN(CC(O)C(F)(F)F)c2cccc(OC(F)(F)F)c2)cc1 (stereo not drawn) [Example 158] | 12 | –
59 | COc1ccc(N(Cc2cccc(OC(F)(F)F)c2)CC(O)C(F)(F)F)cc1OC1CCCC1 (stereo not drawn) [Example 159] | 3.5 | –
60 | COc1cc(N(Cc2cccc(OC(F)(F)F)c2)CC(O)C(F)(F)F)cc(OC)c1OC (stereo not drawn) [Example 160] | 20 | –
61 | N#Cc1cccc(N(Cc2cccc(OC(F)(F)F)c2)CC(O)C(F)(F)F)c1 (stereo not drawn) [Example 162] | 7 | –
62 | N#Cc1ccc(N(Cc2cccc(OC(F)(F)F)c2)CC(O)C(F)(F)F)cc1 (stereo not drawn) [Example 163] | 10 | –
63 | N#Cc1ccc(-c2ccc(N(Cc3cccc(OC(F)(F)F)c3)CC(O)C(F)(F)F)cc2)cc1 (stereo not drawn) [Example 167] | 2 | –
